Experimental data reported in patent US9815847B2 (Icahn School of Medicine at Mount Sinai, priority 2013, dated 2017).

Columns and labels:
[1] = test system: K562; assay: Cytotoxicity on K562 cancer cell line; assay type: cell-based; settings: Homo sapiens; K562 chronic myelogenous leukemia; 96 h; 0.01-100 μM
Description: (§1) The effect of the compounds described herein on tumor cells was determined by the assay described by Latham et al., Oncogene 12:827-837 (1996). Tumor cells K562 (chronic myelogenous leukemia; leukemia cell line +ve for Bcr-Abl) or DU145 (prostate cancer) were plated in 12-well dishes at a cell density of 2.5×10^4 cells per well. The plated cells were treated 24 h. later with a DMSO solution of a compound as described herein at multiple concentrations ranging from 0.01 μM to 100 μM. The plates were examined 96 h. later under an inverted microscope, Olympus CK-2 using a 10× objective, and compound activity was noted by physical observation. When necessary, the total number of viable cells was determined by trypsinizing the wells and counting the number of viable cells, as determined by trypan blue exclusion, using a hemacytometer.

[2] = test system: DU145; assay: Cytotoxicity on DU145 cancer cell line; assay type: cell-based; settings: Homo sapiens, DU-145; DU145 prostate cancer; 96 h; 0.01-100 μM
Description: as §1

## COc1ccc(Nc2ncc(/C=C/S(=O)(=O)c3ccc(OC)cc3)c(NC3CCCC3)n2)cc1 [Compound 15m, (E)-N^4-Cyclopentyl-N^2-(4-methoxyphenyl)-5-{2-[(4-methoxyphenyl)sulfonyl]vinyl}pyrimidine-2,4-diamine]
[1]
  IC50: 1 to 25 µM
[2]
  IC50: 1 to 25 µM

## CNc1nc(Nc2ccc3[nH]cnc3c2)ncc1/C=C/S(=O)(=O)c1ccc(F)cc1F [Compound 15n, (E)-N^2-(1H-Benzo[d]imidazol-5-yl)-5-{2-[(2,4-difluorophenyl)sulfonyl]vinyl}-N^4-methylpyrimidine-2,4-diamine]
[1]
  IC50: 1 to 25 µM
[2]
  IC50: 1 to 25 µM

## COc1ccc(S(=O)(=O)/C=C/c2cnc(N3CCOCC3)nc2NC2CCCC2)cc1 [Compound 15o, (E)-N-Cyclopentyl-5-{2-[(4-methoxyphenyl)sulfonyl]vinyl}-2-morpholinopyrimidin-4-amine]
[1]
  IC50: 1 to 25 µM
[2]
  IC50: 1 to 25 µM

## O=S(=O)(/C=C/c1cnc(N2CCOCC2)nc1NC1CCCC1)c1ccc(F)cc1N1CCOCC1 [Compound 15p, (E)-N-Cyclopentyl-5-{2-[(4-fluoro-2-morpholinophenyl)sulfonyl]vinyl}-2-morpholinopyrimidin-4-amine]
[1]
  IC50: 50 to 100 µM
[2]
  IC50: 1 to 25 µM

## COc1ccc(S(=O)(=O)/C=C/c2cnc(Nc3ccc(N4CCN(C)CC4)cc3)nc2Nc2ccn(C)n2)cc1 [Compound 15q, (E)-5-{2-[(4-Methoxyphenyl)sulfonyl]vinyl}-N^4-(1-methyl-1H-pyrazol-3-yl)-N^2-[4-(4-methylpiperazin-1-yl)phenyl]pyrimidine-2,4-diamine]
[1]
  IC50: < 1 µM
[2]
  IC50: 1 to 25 µM

## CN1CCN(c2ccc(Nc3ncc(/C=C/S(=O)(=O)c4ccc(F)cc4F)c(Nc4ccn(C)n4)n3)cc2)CC1 [Compound 15r, (E)-5-{2-[(2,4-Difluorophenyl)sulfonyl]vinyl}-N^4-(1-methyl-1H-pyrazol-3-yl)-N^2-[4-(4-methylpiperazin-1-yl)phenyl]pyrimidine-2,4-diamine]
[1]
  IC50: 1 to 25 µM
[2]
  IC50: 1 to 25 µM

## Cn1ccc(Nc2nc(Nc3ccc4[nH]ccc4c3)ncc2/C=C/S(=O)(=O)c2ccc(F)cc2F)n1 [Compound 15s, (E)-5-{2-[(2,4-Difluorophenyl)sulfonyl]vinyl}-N^2-(1H-indol-5-yl)-N^4-(1-methyl-1H-pyrazol-3-yl)pyrimidine-2,4-diamine]
[1]
  IC50: 1 to 25 µM
[2]
  IC50: 1 to 25 µM

## Cn1ccc(Nc2nc(Nc3ccc(N4CCOCC4)cc3)ncc2/C=C/S(=O)(=O)c2ccc(F)cc2F)n1 [Compound 15t, (E)-5-{2-[(2,4-Difluorophenyl)sulfonyl]vinyl}-N-(1-methyl-1H-pyrazol-3-yl)-N^2-(4-morpholinophenyl)pyrimidine-2,4-diamine]
[1]
  IC50: 1 to 25 µM
[2]
  IC50: 1 to 25 µM

## Cn1ccc(Nc2nc(Nc3ccc4ncccc4c3)ncc2/C=C/S(=O)(=O)c2ccc(F)cc2F)n1 [Compound 15u, (E)-5-{2-[(2,4-Difluorophenyl)sulfonyl]vinyl}-N^4-(1-methyl-1H-pyrazol-3-yl)-N^2-(quinolin-6-yl)pyrimidine-2,4-diamine]
[1]
  IC50: 1 to 25 µM
[2]
  IC50: 1 to 25 µM

## CCOC(=O)/C=C/c1cnc(Nc2ccc(N3CCN(C)CC3)cc2)nc1NC1CCCC1 [Compound 21, (E)-3-[4-(Cyclopentylamino)-2-{[4-(4-methylpiperazin-1-yl)phenyl]amino}pyrimidin-5-yl]acrylic acid ethyl ester]
[1]
  IC50: < 1 µM
[2]
  IC50: 1 to 25 µM
